One assay deals with SaOS cells. Nature of the assay: cAMP production in SaOS cells, dose-response. Format: cell-based. (In general: Cyclic AMP is a second messenger, typically raised through Gs and lowered through Gi signalling.)
For the next assay, the system named is MC3T3-E1 cells. As to the kind of experiment: cAMP in MC3T3-E1 cells, dose-response. Format: cell-based. The settings on record: Table 2; read-out: MC3T3-E1 cAMP EC50. As for the experimental part: In the 1-30 scaffold, Gly, Ser, Leu, Asn, Gln, Trp, Glu, and Lys were substituted at position 29; Gly, Ser, Leu, Asn, Asp, Trp, and Lys were substituted at position 30; and Ser, Leu, Asn, Val, Trp, Glu, and Lys were substituted at position 31. […] These peptides were tested for cAMP activity in MC3T3-E1 cells.

Assay [1] addresses T1, human PTHR, G protein-coupled conformation (RG) (Homo sapiens, UniProt Q03431).
T1 construct: expressed in transfected cells; host or cells: COS-7, transient (Fugene-6); membranes
T1 sequence (Q03431 27-593): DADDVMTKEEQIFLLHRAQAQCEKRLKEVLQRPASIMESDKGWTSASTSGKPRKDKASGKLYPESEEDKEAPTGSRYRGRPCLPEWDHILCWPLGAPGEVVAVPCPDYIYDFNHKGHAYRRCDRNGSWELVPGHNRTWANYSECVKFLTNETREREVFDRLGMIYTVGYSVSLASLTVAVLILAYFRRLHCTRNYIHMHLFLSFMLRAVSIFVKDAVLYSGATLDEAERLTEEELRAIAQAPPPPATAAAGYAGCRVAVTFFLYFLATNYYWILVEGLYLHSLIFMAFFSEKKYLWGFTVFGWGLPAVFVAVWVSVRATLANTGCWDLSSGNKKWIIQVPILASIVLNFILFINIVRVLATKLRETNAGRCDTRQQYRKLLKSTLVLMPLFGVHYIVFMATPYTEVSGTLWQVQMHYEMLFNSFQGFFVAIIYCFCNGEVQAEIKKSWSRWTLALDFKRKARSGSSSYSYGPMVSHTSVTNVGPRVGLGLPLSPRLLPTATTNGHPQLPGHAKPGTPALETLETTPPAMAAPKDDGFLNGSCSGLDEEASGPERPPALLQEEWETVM
As to the kind of experiment: Competition binding to RG conformation of hPTHR (COS-7 membranes, GαsND, 125I-[Aib1,3,M]PTH(1-15) tracer). The following applies: Table 2; read-out: RG binding affinity hPTHR IC50.

For assay [2], the target named is T2, human PTHR, G protein-uncoupled conformation (R^0) (Homo sapiens, UniProt Q03431).
T2 construct: expressed in transfected cells; host or cells: COS-7, transient (Fugene-6)
T2 sequence (Q03431 27-593): T1 sequence (Q03431 27-593)
Nature of the assay: Competition binding to R0 conformation of hPTHR (COS-7 membranes, GTPγS, 125I-PTH(1-34) tracer). The following applies: Table 2. The gist of the method:
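Membranes from hPTHR-transfected COS-7 cells (20-100 μg/mL protein) incubated 90 min with radioligand (~150,000 cpm/ml) and unlabeled ligands, then filtered. Specific binding expressed as % of binding without competitor.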

The test system of assay [3] is LLCPK1-B64 cells or SaOS-2 cells. Nature of the assay: cAMP screen of substituted PTHrP(1-28) analogs (% parent). The assay is classed as cell-based. The settings on record: parent PTHrP(1-28)NH. In outline:
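LLCPK1-B64 or SaOS-2 cells exposed to peptide analogs at 3×10^−9M with IBMX for 30 minutes at room temperature, then cAMP measured. Each analog's response expressed as percentage of that for parent PTHrP(1-28).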

Assay [4] in a line: Plasma cAMP in C57BL/6 mice after intravenous injection. The assay is classed as in vivo. The settings on record: i.v. (Example 4).
Experimental: Blood was withdrawn 10 minutes after injection, and the plasma level of cAMP was measured by RIA.
Blood was withdrawn 10 minutes after injection and plasma level of cAMP was measured by RIA.
In the cAMP experiment (FIG. 29A), blood was withdrawn 10 minutes after injection and plasma level of cAMP was measured by RIA.
In assay [5] the target is T3, ROS 17/2.8 cells (endogenous rat PTHR) (Rattus norvegicus, UniProt P25961).
T3 construct: the rat osteoblastic cell line ROS17/2.8, which endogenously expresses the rat PTHR; endogenous in cells; host or cells: ROS 17/2.8 rat osteosarcoma cells (membranes or intact cells)
T3 sequence (P25961 27-591): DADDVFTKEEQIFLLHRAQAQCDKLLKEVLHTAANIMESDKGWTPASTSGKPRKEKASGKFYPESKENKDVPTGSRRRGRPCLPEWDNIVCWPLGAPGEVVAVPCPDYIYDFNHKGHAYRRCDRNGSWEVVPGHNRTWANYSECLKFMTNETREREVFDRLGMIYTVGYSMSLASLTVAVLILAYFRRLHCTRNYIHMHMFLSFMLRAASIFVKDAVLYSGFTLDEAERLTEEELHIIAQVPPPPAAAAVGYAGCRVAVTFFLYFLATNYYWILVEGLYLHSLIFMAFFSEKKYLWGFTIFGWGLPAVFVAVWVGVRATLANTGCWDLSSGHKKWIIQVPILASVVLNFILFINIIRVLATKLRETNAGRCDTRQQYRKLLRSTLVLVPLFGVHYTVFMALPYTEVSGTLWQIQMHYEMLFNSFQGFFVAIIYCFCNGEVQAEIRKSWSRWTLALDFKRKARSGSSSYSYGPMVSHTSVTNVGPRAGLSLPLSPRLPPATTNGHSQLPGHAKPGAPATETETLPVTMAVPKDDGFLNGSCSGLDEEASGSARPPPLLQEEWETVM
As to the kind of experiment: Delayed cAMP response in ROS 17/2.8 cells. Format: cell-based. As for the experimental part:
The analogs used were [E^19],Mc-hPTH(1-34)OH (SEQ ID NO:21) and [A^23,E^19],Mc-hPTH(1-34)OH (SEQ ID NO:28) (Mc=Ala^1,3,12,Gln^10,Arg^11,Trp^14, Arg^19).
The data in FIG. 21B are expressed as a percent of the maximum response observed for each ligand, determined by incubating the cells with ligand in the presence of IBMX for 10 minutes (no ligand wash-out). These values were 67±6; 68±3; and 71±1 pmole/well, respectively. The basal (vehicle) cAMP value was 3.7±0.4 pmole/well.
Following treatment of cells with a ligand, the intracellular cAMP levels were measured by radioimmuno assay, as described (Shimizu et al., J. Biol. Chem. 276:49003-49012 (2001)). The capacities of ligands to produce a delayed cAMP response in cells after a brief exposure to the ligand was assessed as follows. […]

Assay [6] is described as follows: Calcemic action in normal rats (blood ionized calcium). The assay is classed as in vivo. In outline: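 Female SD-IGS rats, 8 weeks old, dosed intravenously at 1 ml/kg with peptides in PC-buffer (pH 5.0), 6 per group. Tail-vein blood ionized calcium corrected to pH 7.4 at baseline and 1, 2, 4, 6 h. Time course versus vehicle as mean ± SE.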
A short description of assay [7]: Serum and urinary calcium and phosphate in TPTX rats. The assay is classed as in vivo. Here is the method: Five-week-old male Crl:CD(SD) rats were obtained from Charles River Laboratories Japan, Inc. (Kanagawa, Japan) and acclimated for 1 week under standard laboratory conditions at 20-26° C. and 35-75% humidity. The rats received free access to tap water and standard rodent chow (CE-2) containing 1.1% calcium, 1.0% phosphate and 250 IU/100 g of vitamin D3 (Clea Japan, Inc., Shizuoka, Japan).
Thyroparathyroidectomy (TPTX) was performed on six-week-old rats. TPTX rats were selected for use based on serum ionized calcium (iCa) levels (<1.0 mM) in samples taken from tail vein bleeding at 24 hours or […] after the operation using the electrode method. The TPTX rats were divided into six groups of five animals based on iCa levels at 48 hours after the operation. TPTX-vehicle group intravenously received the vehicle alone (10 mM acetic acid solution) at a dose of 1 ml/kg body weight administered to the tail vein.
Blood was obtained from the tail vein for detecting iCa at 1, 2, 4, 6, and 24 hours after each injection. Ionized calcium levels were determined by the electrode method using an autoanalyzer (M-634, Chiba Corning Diagnostics Co. Ltd., Tokyo, Japan).
We also studied the effects of the M-PTH(1-14)/PTHrP(15-36) hybrid peptide (SP-PTH) on serum and urinary calcium and phosphate.

The target of assay [8] is T4, hPTH1R (R0 form of the human PTH receptor) (Homo sapiens, UniProt Q03431).
T4 construct: expressed in transfected cells; host or cells: COS-7, transient (Fugene-6)
As to the kind of experiment: R0 memb: hPTH1R*PTH( 1-34)+GTPgS.

Assay [9] concerns the target hPTH1R (RG form of the human PTH receptor). As to the kind of experiment: RG memb: hPTH1R+dnGS *M-PTH(1-15).

pEC50, pIC50: −log10 of the molar value. Where two headings read alike, the source gives them in different places. Peptide text beside a SMILES is read from it.

In the case of `CC[C@H](C)[C@H](NC(=O)[C@H](CC(C)C)NC(=O)[C@H](CCCCN)NC(=O)[C@H](CC(C)C)NC(=O)[C@H](CC(C)C)NC(=O)[C@H](Cc1ccccc1)NC(=O)[C@H](C)NC(=O)[C@H](CCCNC(=N)N)NC(=O)[C@H](CCCNC(=N)N)NC(=O)[C@H](CCCNC(=N)N)NC(=O)[C@H](CCC(=O)O)NC(=O)[C@H](CC(=O)O)NC(=O)[C@H](CCC(N)=O)NC(=O)[C@@H](NC(=O)[C@H](CO)NC(=O)[C@H](CCCCN)NC(=O)CNC(=O)[C@H](CCCCN)NC(=O)[C@H](CC(=O)O)NC(=O)[C@H](Cc1c[nH]cn1)NC(=O)[C@H](CC(C)C)NC(=O)[C@H](CC(C)C)NC(=O)[C@H](CCC(N)=O)NC(=O)[C@H](Cc1c[nH]cn1)NC(=O)[C@H](CCC(=O)O)NC(=O)[C@H](CO)NC(=O)[C@@H](NC(=O)[C@H](C)N)C(C)C)[C@@H](C)CC)C(N)=O` [E18, A22, L25, K26-THrP(1-28)NH, E18,A22,L25,K26-PTHrP(1-28)] (H-AVSEHQLLHDKGKSIQDERRRAFLLKLI-NH2; N-terminus assumed), the “cAMP-inducing activity compared with parent, in words” value with SaOS cells is recorded as “Marked enhancements of cAMP-inducing activity”. Further, the pEC50 was 11.00 with SaOS cells (Table 2, read-out: SaOS camp EC50); 11.00 in the assay with SaOS cells (Table 3, read-out: dose-response cAMP in SaOS (EC50)); 10.08 in the assay with MC3T3-E1 cells. Besides, the pIC50 in [1] was 10.00; in assay [2] (read-out: R^0 binding affinity hPTHR IC50) it was 5.76. In [2] (hPTHR), this compound returned an R0/RG selectivity of 18317. In assay [3], the “screen cAMP (% parent)” value came out at 340 % parent. The “plasma cAMP 10 minutes after injection, in words” value in [4] was “Marked enhancements”.

Consider `CC[C@H](C)[C@H](NC(=O)[C@H](CCC(=O)O)NC(=O)[C@H](C)NC(=O)[C@@H](NC(=O)[C@H](Cc1c[nH]cn1)NC(=O)[C@@H](NC(=O)[C@H](CCC(=O)O)NC(=O)[C@H](C)NC(=O)[C@@H](NC(=O)[C@H](CC(C)C)NC(=O)[C@H](Cc1c[nH]cn1)NC(=O)[C@H](Cc1c[nH]cn1)NC(=O)[C@H](CC(C)C)NC(=O)[C@H](Cc1ccccc1)NC(=O)[C@H](Cc1ccccc1)NC(=O)[C@H](CCCNC(=N)N)NC(=O)[C@H](CCCNC(=N)N)NC(=O)[C@H](CCCNC(=N)N)NC(=O)[C@H](CC(C)C)NC(=O)[C@H](CC(=O)O)NC(=O)[C@H](CCC(N)=O)NC(=O)[C@@H](NC(=O)[C@H](Cc1c[nH]c2ccccc12)NC(=O)[C@H](CCCCN)NC(=O)[C@H](C)NC(=O)[C@H](CCCNC(=N)N)NC(=O)[C@H](CCC(N)=O)NC(=O)[C@H](Cc1c[nH]cn1)NC(=O)[C@H](CCSC)NC(=O)[C@H](CC(C)C)NC(=O)[C@H](CCC(N)=O)NC(=O)[C@@H](NC(=O)[C@H](CCC(=O)O)NC(=O)[C@H](C)NC(=O)[C@@H](NC(=O)[C@H](C)N)C(C)C)[C@@H](C)CC)[C@@H](C)CC)[C@@H](C)CC)[C@@H](C)CC)[C@@H](C)O)C(=O)O` [Mc-PTH(1-14)/PTHrP(15-36)] (H-AVAEIQLMHQRAKWIQDLRRRFFLHHLIAEIHTAEI-OH), for which the “duration of cAMP signaling, in words” value in assay [5] is “prolonged cAMP signaling”. Further, the “calcemic action compared with control peptides, in words” value in assay [6] (normal and TPTX rats) is “higher calcemic actions than did PTH(1-34)”. For the same compound, the “calcemic action (blood ionized calcium), in words” value in assay [6] (normal rats, i.v.) is “Prolonged calcemic effects”. Also, the “duration of calcemic / sCa and sPi effect, in words” value in [7] is “prolonged calcemic effects”; in assay [7] (listed as SP-PTH) it was “maintained for 24 hrs”. For the same compound, the “serum calcium (sCa) and serum phosphorus (sPi), in words” value in assay [7] (single i.v. 1.25 nmol/kg) was “increased sCa and decreased sPi to normal levels within 6 hrs”. In [7] (single i.v. 1.25 nmol/kg), the “urinary calcium 0-6 hours, in words” value is “decreased urinary calcium”. In addition, the “urinary phosphate 0-6 hours, in words” value in [7] (single i.v. 1.25 nmol/kg) is on record as “increased urinary phosphate level”. For the same compound, the results for the pIC50 in assay [8] and in assay [9] were 8.57 and 9.17, respectively.

What is called pEC50 is the EC50 on a negative log10 scale, so that one unit is a factor of ten. What is called pIC50 is the IC50 on a negative log10 scale, so that one unit is a factor of ten.

The record behind these values is patent publication US9057727B2, “Screening methods using G-protein coupled receptors and related compositions” (The General Hospital Corporation, priority 2007, dated 2015).
